From patent US8431617B2, “Use of resveratrol for the preparation of a medicament useful for the treatment of influenza virus infections” (Sigma-Tau Industrie Farmaceutiche Riunite S.p.A., priority 2002, dated 2013)

Columns and labels:
[1] = tested on: mRNAs for the viral proteins HA and M; experiment: PCR for messenger RNAs of late viral proteins in infected MDCK cells; type: cell-based, influenza virus A/PR8/34, subtype H1N1
MDCK cells [2] = experiment: Apoptosis in MDCK cells by FACS after labelling with propidium iodide; type: cell-based, dog; settings: for apoptosis: antiviral doses of the drug
Procedure: As regards the analysis of apoptosis. MDCK cells were infected with the virus PR8. After viral adsorption, the cells were treated with resveratrol at various concentrations (5, 10, 15 and 20 μg/ml). Twenty-four hours after infection, the cells were detached using a 0.25% trypsin solution and then centrifuged at 1,200 rpm for 5 min, The precipitate thus obtained was analysed by means of the FACS technique after labelling with propidium iodide.
For the purposes of assessing whether the induction of cell death by apoptosis was involved in the antiviral effect of reservatrol, MDCK cells were infected or not with the virus and treated with the substance at the various concentrations. Cell death by apoptosis was evaluated by FACS after labelling with propidium iodide. […] The infection in itself induced apoptosis in 12% of infected cells. Although the addition of increasing doses caused an increase in the mortality, no significant difference was observed between infected cells and uninfected cells treated with antiviral doses of the drug (35 and 37% apoptosis, respectively).

influenza virus A/PR = experiment: Survival of mice infected intranasally with influenza virus A/PR; type: in vivo, Balb/c AnCrIBR mice; settings: 1 mg/kg, intraperitoneal, daily for 7 days
Procedure: Four-week-old female inbred Balb/c AnCrIBR mice were used. Resveratrol, dissolved in PBS, was administered to the animals via the intraperitoneal route at various times after infection with the influenza virus. The reservatrol concentrations were chosen so as to obtain a range of doses in the animals' blood similar to the effective range in vitro (10 to 20 μg/ml).
The mice were inoculated intranasally (i.n.) with a suspension containing the influenza virus A/PR at a multiplicity of infection of 2 HAU/mouse, after light anaesthesia with ether. On the basis of previous experimental data, the influenza virus at this multiplicity of infection produces haemorrhagic pneumonia that leads to the death of 80% of the animals by one week after infection. For the purposes of monitoring the infection trend, both virological and immunological parameters were monitored in addition to studying survival curves.
The efficacy of resveratrol was studied in an experimental influenza virus infection model in the mouse. In this model, intranasal inoculation of the virus causes severe haemorrhagic pneumonia which leads to the death of the animals within 7 to 10 days of infection. The experimental design envisages evaluation of the therapeutic efficacy of the study substance, as assessed on the basis of survival of the infected animals. […]

[3] = tested on: influenza virus PR8 viral proteins (H0-H1, H2, M, NP, P); experiment: Synthesis of viral proteins in infected MDCK cells by Western blotting; type: cell-based, influenza virus A/PR8/34, subtype H1N1; settings: 15 and 20 μg/ml
Procedure: Viral proteins were analysed by Western blotting. At different times after viral infection, the cells were lysed using special lysis buffers. Equal quantities of proteins were then loaded onto polyacrylamide gel in SDS. After electrophoresis, the proteins were transferred onto a nitrocellulose membrane and treated with anti-influenza polyclonal antibody. After incubation and suitable washings, the filters were treated with a second antibody conjugated to peroxidase and the viral proteins were highlighted by means of the chemiluminescence technique (ECL), using a peroxidase substrate (luminol) which, on reacting with the enzyme, emits a light and makes an impression on the autoradiography plate. The cells were treated with resveratrol at various concentrations (5, 10, 15 and 20 μg/ml). To allow better imaging of the viral proteins, the electrophoresis run was done using a 10% polyacrylamide gel (FIG. 7A) and gradient gel (FIG. 7B).

MDCK cells [4] = experiment: Assay of intracellular glutathione (GSH) in MDCK cells by HPLC; type: cell-based, dog
Procedure: The glutathione assay has been performed as a result of the formation of S-carboxymethyl-derivatives of free thiols with iodoacetic acid followed by conversion of the NH2 terminal groups to 2,4-dinitrophenyl derivatives after the reaction of 1-fluoro-2,4-dinitrobenzene (Anal. Biochemn., 106, 55-62, 1980).
The MDCK cells were detached by means of the scraping technique. Later, the cells were centrifuged at 1,200 rpm for 5 minutes. The cells were washed twice in PBS and the precipitate, obtained after centrifuging, was resuspended in 200 μl of buffer. The cell lysates, obtained with repeated cycles of freezing and thawing, were deproteinised by means of precipitation in 5% metaphosphoric acid. After centrifuging at 22,300 g, the low-molecular-weight thiols present in the supernatant were derivatised with 10% iodoacetic acid v/v and neutralised with NaHCO3 in powder form. After 1 h of incubation in the dark a solution of 1.5% 1-chloro-2,4-dinitrobenzene v/v was added (1.5 ml/98.5 ml of absolute ethanol). […] The protein concentration was calculated using the Lowry method (Biol. Chem., 193, 265-75, 1951). […] The reducing reaction product is detected by the formation of stained compounds by reaction with the aromatic amino acids of the proteins. […]

[5] = tested on: influenza virus A/PR8/34, subtype H1N1 (virus PR8); experiment: Replication of influenza virus PR8 in MDCK cells, virus released in supernatant titrated as haemagglutinating units; type: cell-based
MDCK cells [6] = experiment: Toxicity of resveratrol on confluent monolayers of uninfected MDCK cells (cell count, Trypan Blue viability)
Procedure: The cells were cultured in T-25 vials or in 6- and 24-well Libno plates in RPMI culture medium added with L-glutamine, penicillin-streptomycin and 10% foetal calf serum (FCS) and maintained at 37° C. in a 5% CO2 atmosphere. The confluent cell monolayers were detached with a 0.25% trypsin solution, centrifuged and reseeded in fresh medium. The cell count was done using a haemocytometer and cell viability was determined by means of exclusion with Trypan Blue viability staining (0.02%).
For the purposes of determining the possible degree of toxicity on the MDCK cells, the latter were treated with resveratrol after the confluence of the monolayer, at various concentrations (5, 10, 15, 20 and 40 μg/ml).

viral proteins NP and M = experiment: Localisation of proteins NP and M in infected MDCK cells by immunofluorescence; type: cell-based, influenza virus A/PR8/34, subtype H1N1; settings: 20 μg/ml
Procedure: Viral replication was also assessed with analysis of the occurrence of viral antigens on the surface of the infected cell by means of immunofluorescence. Analysis of viral proteins by immunofluorescence was done with a fluorescence microscope using a filter emitting in the green (FITC) (lens 100×). MDCK cells, cultured on cover slides for 24 h were infected and, 18 h after infection, were fixed with methanol-acetone 1:1 at 4° C. for 15 min. Later, the cells were washed twice in PBS and permeabilised with a 0.1% solution of PBS-TRITON for 5 min. Blockade of the aspecific sites was done with 1% milk dissolved in PBS for 30 min at ambient temperature. Later, specific monoclonal antibodies (mouse anti-influenza NP and mouse anti-influenza M) to viral proteins were added, diluted 1:50 in PBS for 30 min at ambient temperature. The primary antibody was detected with a secondary antibody conjugated to fluorescein (anti-mouse FITC, Sigma). […]

3,4,5-trihydroxystilbene [resveratrol]
release of messenger RNAs for the late viral proteins (HA and M) ([1]; 20 μg/ml, evaluated 8 hours after infection): causes a delay in the release of messenger RNAs | synthesis of the mRNAs for HA and M ([1]; 20 h after infection): not affected by treatment with resveratrol | apoptosis (MDCK cells [2]; infected cells): 35% | cell death by apoptosis (MDCK cells [2]; uninfected cells, 5 μg/ml): 8% | cell death by apoptosis (MDCK cells [2]; uninfected cells, 20 μg/ml): 32% | apoptosis (MDCK cells [2]; uninfected cells): 37% | mortality versus untreated animals (influenza virus A/PR): significantly reduced the mortality | animals that survived the infection (influenza virus A/PR; 2 HAU/mouse i.n.): 60% | expression of early nucleocapside proteins (NP and P) [3]: inhibited, though to a lesser extent than that of the late proteins | synthesis of late haemoagglutinin (H0-H1, H2) and matrix proteins (M) [3]: almost totally inhibited | GSH levels in infected cells (MDCK cells [4]; infected MDCK cells, 24 h after infection): did not restore the GSH levels reduced by the infection | intracellular GSH levels compared to untreated cells (MDCK cells [4]; uninfected MDCK cells): produced a reduction in intracellular GSH levels | time of addition after infection at which viral replication was significantly inhibited ([5]; 20 μg/ml, added 0, 3, 6 and 9 h after infection, HAU/ml 24 h after infection): ≤ 3 h | duration of treatment needed for inhibition of replication ([5]; 20 μg/ml, added immediately after infection, removed at 0, 3, 6, 9 and 24 h): at least 9 hours | reduction of viral titre compared to infected and untreated controls ([5]; 20 μg/ml, added post-infection, MDCK cells, 0.2 m.o.i.): 87% | viral replication after 24 h, treatment only during viral adsorption ([5]; 20 μg/ml, for one hour at 37° C. during adsorption, then removed): comparable to the replication obtained in the control cells | viral replication ([5]; 40 μg/ml): viral replication was completely blocked | viral replication, dose dependence ([5]; added post-infection, 1-40 μg/ml, HAU 24 and 48 h after infection): inhibited viral replication in a dose-dependent manner | reversibility of antiviral activity ([5]; on discontinuing the treatment): not reversible on discontinuing the treatment | viral replication after direct incubation of the virus with the substance ([5]; virus incubated with 40 μg/ml for one hour at 37° C., diluted 1:500, then used for infecting cells): no reduction in viral replication was observed | toxic effects on uninfected cells (MDCK cells [6]; 20 μg/ml): without any toxic effects on the uninfected cells being detected | toxic effects / cell mortality (MDCK cells [6]; 40 μg/ml): toxic effects were observed with an increase in cell mortality | morphological alterations of the cells (MDCK cells [6]; 10-20 μg/ml): no morphological alterations of the cells were observed | cell number (MDCK cells [6]; 10-20 μg/ml, confluent monolayer, uninfected): a slight reduction in cell number was observed | localisation of protein NP (viral proteins NP and M): the NP is retained in the nucleus | protein M expression (viral proteins NP and M): significantly inhibited
